# Test results reported in the supplement of paper PMC11997997.
# Key:
# [1] = tested on: murine bone marrow-derived macrophages; test: area under cytotoxicity dose-response curve (AUC (% cytotoxicity x dose, relative)); higher = more cytotoxic; conditions: duration: 6 days; dose range: 0.13-80 uM, 8 points
# Method in brief: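 Values are the area under the cytotoxicity dose–response curve, calculated with GraphPad Prism version 10. Primary murine bone marrow-derived macrophages were exposed to final concentrations of 80–0.13 μM for 6 days, and viability was read by CellTiter-Glo luminescence with normalisation to vehicle and positive control wells.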
# [2] = tested on: Mycobacterium tuberculosis CDC1551 (intracellular, in murine BMDM); test: area under intracellular growth-inhibition dose-response curve (AUC (% inhibition x dose, relative)); higher = more potent; conditions: duration: 6 days; dose range: 0.13-80 uM, 8 points
# Method in brief: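 The value is the area under the growth-inhibition dose–response curve, calculated in GraphPad Prism. Primary murine bone marrow-derived macrophages were seeded in 384-well opaque plates and, 24 h later, infected for 1 h with luciferase-expressing M. tuberculosis CDC1551 at multiplicity of infection 1. Cells were then exposed for 6 days to an 8-dose, 2.5-fold series (final 80–0.13 μM). Growth was read with the Bright-Glo luciferin assay and normalised to a reference drug control and to the lowest-concentration wells.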
SMILES,area under cytotoxicity dose-response curve [1],area under intracellular growth-inhibition dose-response curve [2]
O=C(NCc1ccccc1)c1cc2ccccc2o1,71.7,197
O=C(Sc1cccc2cccnc12)c1ccc(F)cc1,125,110
COc1cc(/C=N/NC(=O)c2ccncc2)ccc1OCc1cnc(Cl)s1,3.56,219
COc1ccccc1OCC(=O)N/N=C/C=C/c1ccc([N+](=O)[O-])o1,< 0,73.2
CC(=O)c1cc(NC(=O)c2ccc(C)cc2)c(=O)oc1/C=C/N(C)C,37.1,115
CN(CC(=O)Nc1ccc(OC(F)(F)F)cc1)C(=O)c1ccc(N2CCCC2=O)cc1,36.3,27.6
COc1ccc(Cl)cc1NC(=O)C(C)OC(=O)Cn1cc(C(F)(F)F)ccc1=O (stereo unspecified),119,24.1
Cn1ncc2cc(NC(N)=S)ccc21,< 0,196
COc1ccc(OC)c2nc3c(cc12)CCC3,23.1,211
COc1ccc(CCNC(=S)Nc2ccccc2)cc1,78.8,134
O=C(NC1CCCCCC1)c1cccs1,< 0,243
O=C(CCC1CCCCC1)NCc1ccccn1,3,222
CC(C(=O)NC1C(=O)N2C(C(=O)O)=C(CSc3nnnn3C)CSC12)n1cc(Cl)cn1 (stereo unspecified),23.7,174
CCOc1ccc(/C=N/n2cc(-c3ccccc3)nc2S)cc1,< 0,265
CN(C)CCSc1nc2cc(S(=O)(=O)N3CCCCC3)ccc2o1,11.5,1.9
CCOC(=O)c1cc(-c2csc(-c3ccc(C(C)(C)C)cc3)n2)on1,79.1,231
Cc1cc(C)n2nc3nc4c(cc3c2n1)CCCC4,< 0,152
O=C(CC1CC2CCC1C2)NCc1cccs1 (stereo unspecified),65.1,193
CC(C)Oc1ccc(/C=N/NC(N)=S)cc1,17.8,275
C/C(=N\NC(N)=S)c1ccccc1,45.3,219
NC(=S)c1cn(C2OC(CO)C(O)C2O)c2ncnc(N)c12 (stereo unspecified),36.6,70.2
Cn1c(NC(=S)Nc2ccccc2)nc2ccccc21,55.9,206
O=C(NC(CO)C(O)c1ccc([N+](=O)[O-])cc1)C(Cl)Cl (stereo unspecified),21.4,113
O=C(Nc1ccc(C(=O)Oc2ccccc2)c(O)c1)c1ccccc1,93.1,210
CCCCC(=O)NCc1ccccc1Cl,22.2,262
CN1CCN2c3ccccc3Cc3ccccc3C2C1.Cl (stereo unspecified),< 0,118
CCC(=O)NC(=S)Nc1ccc(NC(=O)c2ccc(OC)cc2)cc1,< 0,266
O=C(CCC1CCCCC1)NCc1cccs1,42.9,187
